Reference: patent US7071197B2, “N,N-disubstituted diazocycloalkanes” (Recordati S.A., priority 2002, dated 2006)

What was measured:
[1] = target: T1, human 5HT1A-serotonergic receptor (Homo sapiens, UniProt P08908); experiment: [3H]8-OH-DPAT radioligand binding to human recombinant 5-HT1A receptors; details: for Ki: [3H]8-OH-DPAT, HeLa cell membranes, read-out: Affinity: Ki; for potency at the 5-HT1A receptor compared with Ex. 5: statistical signficance p<0.01
T1 construct: expressed in transfected cells
T1 sequence (P08908 1-422): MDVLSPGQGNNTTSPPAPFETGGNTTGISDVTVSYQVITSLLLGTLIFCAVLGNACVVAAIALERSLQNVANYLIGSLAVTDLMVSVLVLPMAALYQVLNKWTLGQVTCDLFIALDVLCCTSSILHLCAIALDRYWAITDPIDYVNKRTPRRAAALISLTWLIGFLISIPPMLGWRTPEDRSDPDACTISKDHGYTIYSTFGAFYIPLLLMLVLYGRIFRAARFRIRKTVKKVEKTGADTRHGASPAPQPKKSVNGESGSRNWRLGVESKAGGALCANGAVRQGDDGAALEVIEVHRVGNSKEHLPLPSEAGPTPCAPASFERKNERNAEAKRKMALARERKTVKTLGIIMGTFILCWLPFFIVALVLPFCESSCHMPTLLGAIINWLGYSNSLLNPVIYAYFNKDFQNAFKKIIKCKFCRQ
Procedure: A genomic clone coding for the human 5HT1A-serotonergic receptor was stably transfected in a human cell line (HeLa). HeLa cells were grown as monolayers in Dulbecco's modified Eagle medium (DMEM), containing 10% fetal bovine serum, gentamycin (0.1 mg/ml) and 5% carbon dioxide, at 37° C. The cells were detached from the growth flask at 95% confluence by a cell scraper and were lysed in cold 5 mM Tris and 5 mM EDTA buffer (pH 7.4). The homogenates were centrifuged at 40000×g×20 minutes and the pellets were resuspended in a small volume of cold 5 mM Tris and 5 mM EDTA buffer (pH 7.4) and immediately frozen and stored at −70° C. until use.
[^3H]8-OH-DPAT binding: on the day of experiment, the cell membranes were resuspended in incubation buffer: 50 mM Tris HCl (pH 7.4), 2.5 mM MgCl2, […] (Fargin et al., Nature 335, 358–360, 1988). The membranes were incubated in a final volume of 1 ml for 30 minutes at 30° C. with 1 nM [^3H]8-OH-DPAT, in the absence or presence of the test compounds. Non-specific binding was determined in the presence of 10 μM 5-HT. Incubation was stopped by addition of cold Tris-HCl buffer and rapid filtration through a 0.2%-polyethyleneimine-pretreated Whatman-GF/B or Schleicher-&-Schuell-GF52 filter.
The affinity of the tested compounds was evaluated as inhibition of specific binding of the radioligand to 5-HT1A receptors (IC50) by using the non-linear curve-fitting program (De Lean et al., Am. J. Physiol. 235, E97-E102, 1978). The IC50 value was converted to an affinity constant (Ki) by the equation of Cheng et al., Biochem. Pharmacol. 22, 3099–3108 (1973).

[2] = target: T2, rat D3 dopamine receptors (Rattus norvegicus, UniProt P19020); experiment: [3H]-7-OH-DPAT binding to rat recombinant D3 dopamine receptors (SPA); details: for Ki: [3H]-7-OH-DPAT, CHO cell membranes, read-out: Binding affinity for D3 dopamine receptors Ki; for D3/5-HT1A: selectivity: ratio of Ki at D3 and Ki at 5-HT1A
T2 construct: expressed in transfected cells; host or cells: CHO cells (permanent expression)
Procedure: Cloned rat D3 dopamine receptors permanently expressed in CHO cells were used (Chio et al. Mol. Pharmacol. 45, 51–60, 1994). Membranes were prepared by mechanical disruption of cell pellets in ice cold 50 mM Tris, 5 mM EDTA, 5 mM EGTA, pH 7.4 followed by low (100 g), medium (20000 g) and high (80000 g) speed centrifugation steps. Competition radioligand binding experiments employed 11 drug concentrations run in duplicate in a scintillation proximity assay (SPA) format. The radioligand used was [^3H]-7-OH-DPAT (154 Ci/mmol). […] binding (75–95% of total) was defined with cold haloperidol added in excess (3 μM). Total binding was determined with buffer: 20 mM HEPES, 10 mM MgSO4, 150 mM NaCl, 1 mM EDTA (pH 7.4). Binding mixtures were made in flexible, 96-well, Wallac Micro-Beta plates by the addition of 11 μl of drug dilution, 11 μl of radioligand, and 178 μl of membrane/SPA bead suspension (100 mg of WGA-coated SPA beads incubated with 5–15 μg protein/plate in 10 ml binding buffer for 30 minutes at room temperature followed by low-speed centrifugation and resuspension in 2 ml binding buffer). After sealing and incubation at room temperature for 1 hour the plates were counted in a Wallac Micro-Beta scintillation counter.
IC50 values from both assay methods were estimated by fitting the data to a one-site competition model: Y=T/(1+10^log(X)−log(IC50)), where Y is the specific CPM's bound at concentration X and T is the specific CPM's bound in the absence of competitor. Inhibition constants (Ki) were calculated using the Cheng-Prushoff equation (Biochem. Pharmacol. 22: 3099–3108, 1973).

T2 sequence (P19020 whole entry): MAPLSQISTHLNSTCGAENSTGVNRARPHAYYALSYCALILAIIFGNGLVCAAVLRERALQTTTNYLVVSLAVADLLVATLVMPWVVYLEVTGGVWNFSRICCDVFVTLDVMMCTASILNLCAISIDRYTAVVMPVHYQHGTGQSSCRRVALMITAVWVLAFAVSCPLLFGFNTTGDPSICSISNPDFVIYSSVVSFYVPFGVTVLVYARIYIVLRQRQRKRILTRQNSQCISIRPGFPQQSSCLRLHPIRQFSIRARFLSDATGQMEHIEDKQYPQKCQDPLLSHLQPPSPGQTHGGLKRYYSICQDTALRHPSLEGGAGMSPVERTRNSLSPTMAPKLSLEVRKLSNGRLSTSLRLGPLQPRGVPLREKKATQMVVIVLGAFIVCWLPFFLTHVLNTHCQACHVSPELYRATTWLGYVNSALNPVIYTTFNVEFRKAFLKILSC

Row | Ki [1] [nM] | potency at the 5-HT1A receptor compared with Ex. 5 [1] | Ki [2] [nM] | D3/5-HT1A [2] | Compound
1 | 0.13 | more potent than Ex. 5 | 12.5 | 96 | COc1ccccc1N1CCN(CC[C@@H](c2ccccc2F)[C@H](O)C2CCCCC2)CC1 (racemic) [Ex. 1, 1-[(SR-RS)-4-cyclohexyl-4-hydroxy-3-(2-fluorophenyl)-butyl]-4-(2-methoxyphenyl)-piperazine]
2 | 0.65 | – | 7 | 11 | COc1ccccc1N1CCN(CC[C@H](c2ccccc2)[C@@H](O)C2CCCCC2)CC1 (racemic) [Ex. 5, 1-[(RS,SR)-4-Cyclohexyl-4-hydroxy-3-phenyl-butyl]-4-(2-methoxyphenyl)-piperazine, reference compound]
3 | 0.37 | more potent than Ex. 5 | 20 | 54 | COc1ccccc1N1CCN(CC[C@H](c2ccccc2F)[C@@H](O)C2CCCCC2)CC1 [Ex. 1Y, 1-[(3R,4S)-4-cyclohexyl-4-hydroxy-3-(2-fluorophenyl)-butyl]-4-(2-methoxyphenyl)-piperazine]
4 | 0.24 | more potent than Ex. 5 | 3 | 12 | COc1ccccc1N1CCN(CC[C@H](c2ccccc2F)[C@H](O)C2CCCCC2)CC1 [Ex. 2X, 1-[(3R,4R)-4-cyclohexyl-4-hydroxy-3-(2-fluorophenyl)-butyl]-4-(2-methoxyphenyl)-piperazine]
